Test results as given in US20220313701A1, “MODULATORS OF TREX1” (Constellation Pharmaceuticals, Inc., priority 2019, published 2022).

How the values were obtained:
full length human TREX1 = molecular target: T1, full length human TREX1 (Homo sapiens, UniProt Q9NSU2); assay: TREX1 Biochemical Assay (fluorescence assay, degradation of dsDNA substrate); settings: 150 pM TREX1, 60 nM dsDNA substrate, 25 minutes at room temperature
T1 construct: N-terminally His-Tev tagged full length human TREX1; His-Tev (His tag with TEV site) (N); made in house; host or cells: E. coli
T1 sequence (Q9NSU2 1-314): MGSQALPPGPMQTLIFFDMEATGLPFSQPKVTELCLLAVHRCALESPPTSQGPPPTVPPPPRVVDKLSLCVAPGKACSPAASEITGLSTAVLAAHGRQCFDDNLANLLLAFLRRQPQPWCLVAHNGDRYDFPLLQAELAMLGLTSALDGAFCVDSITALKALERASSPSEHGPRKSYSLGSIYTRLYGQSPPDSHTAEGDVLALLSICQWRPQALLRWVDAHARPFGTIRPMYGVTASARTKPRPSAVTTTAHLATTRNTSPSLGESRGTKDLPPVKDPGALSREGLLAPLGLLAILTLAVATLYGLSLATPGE
Experimental: Degradation of the dsDNA liberates free fluorophore to produce a fluorescent signal. Specifically, 7.5 μL of N-terminally His-Tev tagged full length human TREX1 (expressed in E. coli and purified in house) in reaction buffer (50 mM Tris (pH 7.4), 150 mM NaCl, 2 mM DTT, 0.1 mg/mL BSA, 0.01% (v/v) Tween-20 and either 100 mM MgCl2) was added to a 384-well Black ProxiPlate Plus (Perkin Elmer) which already contained compound (150 nL) at varying concentrations as a 10 point dose-response in DMSO. To this was added 7.5 μL of dsDNA substrate (Strand A: 5′ TEX615/GCT AGG CAG 3′; Strand B: 5′ CTG CCT AGC/IAbRQSp (Integrated DNA Technologies)) in reaction buffer. Final concentrations were 150 pM TREX1, 60 nM dsDNA substrate in reaction buffer with 1.0% DMSO (v/v). After 25 minutes at room temperature, reactions were quenched by the addition of 5 μL of stop buffer (same as reaction buffer plus 200 mM EDTA). Final concentrations in the quenched reaction were 112.5 pM TREX1, 45 nM DNA and 50 mM EDTA in a volume of 20 μL. After a 5-minute incubation at room temperature, plates were read in a laser sourced Envision (Perkin-Elmer), measuring fluorescence at 615 nm following excitation w/570 nm light. IC50 values were calculated by comparing the measured fluorescence at 615 nm ratio relative to control wells pre-quenched w/stop buffer (100% inhibition) and no inhibitor (0% inhibition) controls as using non-linear least square four parameter fits and either Genedata or GraphPad Prism (GraphPad Software, Inc.).

[1] = molecular target: T2, human TREX2 (residues M44-A279) (Homo sapiens, UniProt Q9BQ50); assay: TREX2 Biochemical Assay (fluorescence assay, degradation of dsDNA substrate); settings: 2.5 nM TREX2, 60 nM dsDNA substrate, 25 minutes at room temperature
T2 construct: human TREX2 (residues M44-A279, expressed in E. coli); His-Tev (His tag with TEV site) (N); made in house; host or cells: E. coli
T2 sequence (Q9BQ50 44-279 isoform Q9BQ50-1): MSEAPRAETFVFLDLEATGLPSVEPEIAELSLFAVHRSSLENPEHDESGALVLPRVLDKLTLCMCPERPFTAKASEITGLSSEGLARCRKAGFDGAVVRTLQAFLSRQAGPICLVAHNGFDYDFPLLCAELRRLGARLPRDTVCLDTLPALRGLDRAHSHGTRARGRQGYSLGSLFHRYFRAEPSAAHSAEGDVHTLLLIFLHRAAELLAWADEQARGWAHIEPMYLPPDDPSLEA
Experimental: Degradation of the dsDNA liberates free fluorophore to produce a fluorescent signal. Specifically, 7.5 μL of N-terminally His-Tev tagged human TREX2 (residues M44-A279, expressed in E. coli and purified in house) in reaction buffer (50 mM Tris (pH 7.4), 150 mM NaCl, 2 mM DTT, 0.1 mg/mL BSA, 0.01% (v/v) Tween-20 and 100 mM MgCl2) was added to a 384-well Black ProxiPlate Plus (Perkin Elmer) which already contained compound (150 nL) at varying concentrations as a 10 point dose-response in DMSO. To this was added 7.5 μL of dsDNA substrate (Strand A: 5′ TEX615/GCT AGG CAG 3′; Strand B: 5′ CTG CCT AGC/IAbRQSp (IDT)) in reaction buffer. Final concentrations were 2.5 nM TREX2, 60 nM dsDNA substrate in reaction buffer with 1.0% DMSO (v/v). After 25 minutes at room temperature, reactions were quenched by the addition of 5 μL of stop buffer (same as reaction buffer plus 200 mM EDTA). Final concentrations in the quenched reaction mixture were […] TREX2, 45 nM DNA and 50 mM EDTA in a volume of 20 μL. After a 5-minute incubation at room temperature, plates were read in a laser sourced Envision (Perkin-Elmer), measuring fluorescence at 615 nm following excitation w/570 nm light. IC50 values were calculated by comparing the measured fluorescence at 615 nm ratio relative to control wells pre-quenched w/stop buffer (100% inhibition) and no inhibitor (0% inhibition) controls as using non-linear least square four parameter fits and either Genedata or GraphPad Prism (GraphPad Software, Inc.).

| Structure (SMILES) | IC50 (full length human TREX1) [µM] | IC50 [1] [µM] |
| --- | --- | --- |
| OC1(c2ccc(F)cc2)CCN(c2ccccn2)CC1 [Example 86, 4-(4-fluorophenyl)-1-(pyridin-2-yl)piperidin-4-ol] | > 10 | > 100 |
| Cc1ccc(-c2cncc(N3CCC(O)(c4ccc(F)cc4)CC3)n2)cn1 [Example 15, 4-(4-fluorophenyl)-1-(6-(6-methylpyridin-3-yl)pyrazin-2-yl)piperidin-4-ol] | 0.1 to 1 | > 100 |
| Cc1nc(-c2cn(C)nc2C)cc(N2CCC(O)(c3ccc(F)c(F)c3)CC2)n1 [Example 57, 4-(3,4-difluorophenyl)-1-(6-(1,3-dimethyl-1H-pyrazol-4-yl)-2-methylpyrimidin-4-yl)piperidin-4-ol] | < 0.1 | > 100 |
| Cc1noc(C)c1-c1cncc(N2CCC(O)(c3ccc(F)c(F)c3)CC2)n1 [Example 52, 4-(3,4-difluorophenyl)-1-(6-(3,5-dimethylisoxazol-4-yl)pyrazin-2-yl)piperidin-4-ol] | 1 to 10 | > 100 |
| Cc1nn(C)cc1-c1cc(CO)cc(N2CCC(O)(c3ccc(F)c(F)c3)CC2)n1 [Example 44, 4-(3,4-difluorophenyl)-1-(6-(1,3-dimethyl-1H-pyrazol-4-yl)-4-(hydroxymethyl)pyridin-2-yl)piperidin-4-ol] | 0.1 to 1 | 10 to 100 |
| Cc1nn(C)cc1-c1cc(C(C)(C)O)cc(N2CCC(O)(c3ccc(F)c(F)c3)CC2)n1 [Example 45, 4-(3,4-difluorophenyl)-1-(6-(1,3-dimethyl-1H-pyrazol-4-yl)-4-(2-hydroxypropan-2-yl)pyridin-2-yl)piperidin-4-ol] | < 0.1 | 10 to 100 |
| Cc1nc(-c2cn(C)nc2C)c(F)c(N2CCC(O)(c3ccc(F)c(F)c3)CC2)n1 [Example 91, 4-(3,4-difluorophenyl)-1-(6-(1,3-dimethyl-1H-pyrazol-4-yl)-5-fluoro-2-methylpyrimidin-4-yl)piperidin-4-ol] | 0.1 to 1 | > 100 |
| O=C(NCC(O)c1ccccc1)c1cncc(N2CCC(O)(c3ccc(F)cc3)CC2)n1 (stereo not drawn) [Example 71, 6-(4-(4-fluorophenyl)-4-hydroxypiperidin-1-yl)-N-(2-hydroxy-2-phenylethyl)pyrazine-2-carboxamide] | 1 to 10 | > 100 |
| OC1(c2ccc(F)cc2)CCN(c2cncc(N3CCCC3)n2)CC1 [Example 78, 4-(4-fluorophenyl)-1-(6-(pyrrolidin-1-yl)pyrazin-2-yl)piperidin-4-ol] | > 10 | > 100 |
| Cc1nn(C)cc1-c1cc(C(F)(F)F)cc(N2CCC(O)(c3ccc(F)c(F)c3)CC2)n1 [Example 46, 4-(3,4-difluorophenyl)-1-(6-(1,3-dimethyl-1H-pyrazol-4-yl)-4-(trifluoromethyl)pyridin-2-yl)piperidin-4-ol] | 0.1 to 1 | > 100 |
| N#Cc1ccccc1-c1cncc(N2CCC(O)(c3ccc(F)cc3)CC2)n1 [Example 23, 2-(6-(4-(4-fluorophenyl)-4-hydroxypiperidin-1-yl)pyrazin-2-yl)benzonitrile] | 1 to 10 | > 100 |
| Cc1cnn(-c2cncc(N3CCC(O)(c4ccc(F)cc4)CC3)n2)c1 [Example 72, 4-(4-fluorophenyl)-1-(6-(4-methyl-1H-pyrazol-1-yl)pyrazin-2-yl)piperidin-4-ol] | 1 to 10 | > 100 |
| O=C(NCc1ccccn1)c1cncc(N2CCC(O)(c3ccc(F)cc3)CC2)n1 [Example 66, 6-(4-(4-fluorophenyl)-4-hydroxypiperidin-1-yl)-N-(pyridin-2-ylmethyl)pyrazine-2-carboxamide] | > 10 | > 100 |
| Cc1nc(N2CCC(O)(c3ccc(F)c(F)c3)CC2)cc(-n2c(C)cnc2-c2ccccn2)n1 [Example 107, 4-(3,4-difluorophenyl)-1-(2-methyl-6-(5-methyl-2-(pyridin-2-yl)-1H-imidazol-1-yl)pyrimidin-4-yl)piperidin-4-ol] | 1 to 10 | > 100 |
| OC1(c2ccc(F)cc2)CCN(c2cncc(-c3cnn(Cc4ccccc4)c3)n2)CC1 [Example 14, 1-(6-(1-benzyl-1H-pyrazol-4-yl)pyrazin-2-yl)-4-(4-fluorophenyl)piperidin-4-ol] | 1 to 10 | > 100 |
| OC1(c2ccc(F)cc2)CCN(c2cnc3ccccc3n2)CC1 [Example 82, 4-(4-fluorophenyl)-1-(quinoxalin-2-yl)piperidin-4-ol] | 1 to 10 | > 100 |
| OC1(c2ccc(F)cc2)CCN(c2cncc(-c3ccncc3)n2)CC1 [Example 35, 4-(4-fluorophenyl)-1-(6-(pyridin-4-yl)pyrazin-2-yl)piperidin-4-ol] | 1 to 10 | > 100 |
| Cc1nc(N2CCC(O)(c3ccc(F)c(F)c3)CC2)cc(N2CCOC[C@@H]2c2ccccc2)n1 [Example 105, (S)-4-(3,4-difluorophenyl)-1-(2-methyl-6-(3-phenylmorpholino)pyrimidin-4-yl)piperidin-4-ol] | 1 to 10 | > 100 |
| COCCNC(=O)c1cncc(N2CCC(O)(c3ccc(F)cc3)CC2)n1 [Example 69, 6-(4-(4-fluorophenyl)-4-hydroxypiperidin-1-yl)-N-(2-methoxyethyl)pyrazine-2-carboxamide] | > 10 | > 100 |
| OC1(c2ccccc2)CCN(c2cncc(-n3cccn3)n2)CC1 [Example 73, 1-(6-(1H-pyrazol-1-yl)pyrazin-2-yl)-4-phenylpiperidin-4-ol] | > 10 | > 100 |
| Cc1noc(C)c1-c1cncc(N2CCC(O)(c3ccc(F)cc3)CC2)n1 [Example 19, 1-(6-(3,5-dimethylisoxazol-4-yl)pyrazin-2-yl)-4-(4-fluorophenyl)piperidin-4-ol] | 1 to 10 | > 100 |
| OC1(c2ccc(F)cc2)CCN(c2cccc(-n3cccn3)n2)CC1 [Example 79, 1-(6-(1H-pyrazol-1-yl)pyridin-2-yl)-4-(4-fluorophenyl)piperidin-4-ol] | 1 to 10 | > 100 |
| OC1(c2ccncc2)CCN(c2cncc(-n3cccn3)n2)CC1 [Example 76, 1-(6-(1H-pyrazol-1-yl)pyrazin-2-yl)-4-(pyridin-4-yl)piperidin-4-ol] | > 10 | > 100 |
| Cc1nn(C)cc1-c1c[nH]c(=O)c(N2CCC(O)(c3ccc(F)c(F)c3)CC2)n1 [Example 99, 3-(4-(3,4-difluorophenyl)-4-hydroxypiperidin-1-yl)-5-(1,3-dimethyl-1H-pyrazol-4-yl)pyrazin-2(1H)-one] | 0.1 to 1 | > 100 |
